Experimental data taken from US9890147B2 (BAYER PHARMA AKTIENGESELLSCHAFT, priority 2012, dated 2018).
pIC50: −log10 of the molar value.

Key:
BRD4 (BD1) = target: T1, BRD4 (BD1) (Homo sapiens, UniProt O60885); experiment: Binding assay BRD4/acetylated peptide H4 (TR-FRET protein-protein interaction assay)
T1 construct: with relatively long constructs also being possible, preferably amino acids 44-168; made in house; host or cells: E. coli
How it was run: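 His6-BRD4 BD1 (aa 67-152, E. coli), usually 10 nM, with biotinylated tetra-acetylated H4 peptide in HEPES pH 7.5 buffer; 11 compound concentrations 0.1 nM–20 μM in duplicate, 10 min preincubation, 1 h at 22 °C then ≥3 h at 4 °C. TR-FRET 665/620 ratio; IC50 by 4-parameter fit.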

MOLM-13 cells = experiment: Cell proliferation assay (alamarBlue), MOLM-13; type: cell-based; conditions: Homo sapiens, 96 hours incubation, inhibition of cell proliferation
How it was run: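 Cells in RPMI1640/10% FCS read by alamarBlue fluorescence (ex 530, em 590 nm) after overnight 37 °C incubation, then treated at 1E-5 to 1E-8 M for 96 h. Pre-treatment values subtracted from endpoint values and compared with buffer-only wells; IC50 is 50% proliferation inhibition.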

MV4-11 cells = experiment: Cell proliferation assay (alamarBlue), MV4-11; type: cell-based; conditions: Homo sapiens, 72 hours incubation, inhibition of cell proliferation
Protocol: (§1) In accordance with the invention, the capability of the substances to inhibit cell proliferation was determined Cell viability was determined using the alamarBlue® reagent (Invitrogen) in a Victor X3 Multilabel Reader (Perkin Elmer). The excitation wavelength was 530 nm and the emission wavelenth […].
The MV4-11 cells (ATCC, CRL 9591) were sown at a concentration of 5000 cells/well in 100 μl growth medium (RPMI1640, 10% FCS) on 96-well microtitre plates.
(§2) After an overnight incubation at 37° C., the fluorescence values (CI values) were determined. The plates were then treated with various substance dilutions (1E-5 M, 3E-6 M, 1E-6M, 3E-7 M, 1E-7 M, 3E-8 M, 1E-8 M) and incubated at 37° C. for 72 (MV4-11-, LOX-IMVI cells), 96 (MOLM-13-, B16F10-, MDA-MB-431-, Caov-3 cells), 120 (MOLP-8-, KMS-12-PE cells) or 168 (LAPC-4 cells) hours. The fluorescence values (CO values) were then determined. For the data analysis, the CI values were subtracted from the CO values and the results were compared between cells treated with different dilutions of the substance or with buffer solution only. These were used to calculate the IC 50 values (substance concentration required for 50% inhibition of cell proliferation).

LOX-IMVI cells = experiment: Cell proliferation assay (alamarBlue), LOX-IMVI; type: cell-based; conditions: Homo sapiens, 72 hours incubation, inhibition of cell proliferation
Protocol: as §1
The LOX-IMVI cells (NCI-60) were sown at a concentration of 1000 cells/well in 100 μl growth medium (RPMI1640, 10% FCS) on 96-well microtitre plates.
as §2

MOLP-8 cells = experiment: Cell proliferation assay (alamarBlue), MOLP-8; type: cell-based; conditions: Homo sapiens, 120 hours incubation, inhibition of cell proliferation
Protocol: as §1
The MOLP-8 cells (DSMZ, ACC 569) were sown at a concentration of 4000 cells/well in 100 μl growth medium (RPMI1640, 20% FCS) on 96-well microtitre plates.
as §2

KMS-12-PE cells = experiment: Cell proliferation assay (alamarBlue), KMS-12-PE; type: cell-based; conditions: Homo sapiens, 120 hours incubation, inhibition of cell proliferation
Protocol: as §1
The KMS-12-PE cells (DSMZ, ACC 606) were sown at a concentration of 4000 cells/well in 100 μl growth medium (RPMI1640, 20% FCS) on 96-well microtitre plates.
as §2

Caov-3 cells = experiment: Cell proliferation assay (alamarBlue), Caov-3; type: cell-based; conditions: Homo sapiens; inhibition of cell proliferation, Caov-3 (ovarian carcinoma), 96 hours
Protocol: as §1
The MDA-MB-231 cells (DSMZ, ACC 732) were sown at a concentration of 4000 cells/well in 100 μl growth medium (DMEM/Ham's F12 medium, 10% FCS) on 96-well microtitre plates. The Caov-3 cells (ATCC, HTB-75) were sown at a concentration of 2000 cells/well in 100 μl growth medium (MEM Earle's medium, 10% FCS) on 96-well microtitre plates.
as §2

pIC50 (BRD4 (BD1)) | pIC50 (MOLM-13 cells) | pIC50 (MV4-11 cells) | Structure (SMILES) | pIC50 (LOX-IMVI cells) | pIC50 (MOLP-8 cells) | pIC50 (KMS-12-PE cells) | pIC50 (Caov-3 cells)
7.40 | 6.64 | 6.85 | CNC(=O)N1N=C(c2ccc(-c3cn(C)nn3)cc2)c2cc(OC)c(OC)cc2CC1C (racemic) [Example 45, (±)-7,8-dimethoxy-N,4-dimethyl-1-[4-(1-methyl-1H-1,2,3-triazol-4-yl)phenyl]-4,5-dihydro-3H-2,3-benzodiazepine-3-carboxamide] | 6.46 | 6.89 | 6.89 | 6.62
6.96 | 6.72 | 6.66 | CNC(=O)N1N=C(c2ccc(-c3cccnc3C(F)(F)F)cc2)c2cc(OC)c(OC)cc2CC1C (racemic) [Example 48, (±)-7,8-dimethoxy-N,4-dimethyl-1-{4-[2-(trifluoromethyl)pyridin-3-yl]phenyl}-4,5-dihydro-3H-2,3-benzodiazepine-3-carboxamide] | 6.19 | 6.60 | 6.59 | 6.33
7.30 | 6.62 | 6.85 | CNC(=O)N1N=C(c2ccc(-c3cnoc3)cc2)c2cc(OC)c(OC)cc2CC1C (racemic) [Example 52, (±)-1-[4-(isoxazol-4-yl)phenyl]-7,8-dimethoxy-N-dimethyl-4,5-dihydro-3H-2,3-benzodiazepine-3-carboxamide] | 6.35 | 6.82 | 6.89 | 6.46
7.40 | 6.60 | 7.30 | CNC(=O)N1N=C(c2ccc(-c3cccc(NS(C)(=O)=O)c3)cc2)c2cc(OC)c(OC)cc2CC1C (racemic) [Example 71, (±)-7,8-dimethoxy-N,4-dimethyl-1-{3′-[(methylsulphonyl)amino]biphenyl-4-yl}-4,5-dihydro-3H-2,3-benzodiazepine-3-carboxamide] | 6.82 | 7.05 | 7.10 | 6.82
7.40 | 6.60 | 7.15 | CNC(=O)N1N=C(c2ccc(-c3cccc(C(=O)N4CCCC4)c3)cc2)c2cc(OC)c(OC)cc2CC1C (racemic) [Example 96, (±)-7,8-dimethoxy-N,4-dimethyl-1-[3′-(pyrrolidin-1-ylcarbonyl)biphenyl-4-yl]-4,5-dihydro-3H-2,3-benzodiazepine-3-carboxamide] | 6.66 | 7.05 | 7.15 | 6.77
7.52 | 6.64 | – | CNC(=O)N1N=C(c2ccc(N3CCC3)cc2)c2cc(OC)c(OC)cc2CC1C (racemic) [Example 128, (±)-1-[4-(azetidin-1-yl)phenyl]-7,8-dimethoxy-N,4-dimethyl-4,5-dihydro-3H-2,3-benzodiazepine-3-carboxamide] | 6.41 | 7.00 | 7.00 | 6.49
7.52 | 7.00 | 7.22 | CNC(=O)N1N=C(c2ccc(N3CCOCC3)cc2)c2cc(OC)c(OC)cc2C[C@@H]1C [Example 7.2, (4S)-7,8-dimethoxy-N,4-dimethyl-1-[4-(morpholin-4-yl)phenyl]-4,5-dihydro-3H-2,3-benzodiazepine-3-carboxamide] | 6.72 | 7.30 | 7.30 | –

More lines, now with the values behind:

Structure (SMILES) | pIC50 (BRD4 (BD1)) | pIC50 (MOLM-13 cells) | pIC50 (MV4-11 cells) | pIC50 (LOX-IMVI cells) | pIC50 (MOLP-8 cells) | pIC50 (KMS-12-PE cells) | pIC50 (Caov-3 cells)
CNC(=O)N1N=C(c2ccc(-c3sc(C)nc3C)cc2)c2cc(OC)c(OC)cc2CC1C (racemic) [Example 46, (±)-1-[4-(2,4-dimethylthiazol-5-yl)phenyl]-7,8-dimethoxy-N,4-dimethyl-4,5-dihydro-3H-2,3-benzodiazepine-3-carboxamide] | 7.52 | 6.72 | 6.96 | 6.43 | 6.80 | 6.92 | 6.55
CNC(=O)N1N=C(c2ccc(-c3c(C)nn(C)c3C)cc2)c2cc(OC)c(OC)cc2CC1C (racemic) [Example 51, (±)-7,8-dimethoxy-N,4-dimethyl-1-[4-(1,3,5-trimethyl-1H-pyrazol-4-yl)phenyl]-4,5-dihydro-3H-2,3-benzodiazepine-3-carboxamide] | 7.52 | 6.68 | 6.92 | 6.46 | 6.92 | 7.05 | 6.55
CNC(=O)N1N=C(c2ccc(Cl)cc2)c2cc(OCc3cccc(C)n3)ccc2CC1C (racemic) [Example 167] | 6.51 | 5.49 | – | – | 5.53 | – | –
CNC(=O)N1N=C(c2ccc(-c3c(C)noc3C)cc2)c2cc(O)ccc2CC1C (racemic) [Example 168, (±)-1-[4-(3,5-Dimethylisoxazol-4-yl)phenyl]-8-hydroxy-N,4-dimethyl-4,5-dihydro-3H-2,3-benzodiazepine-3-carboxamide] | 6.96 | 6.41 | 6.66 | – | – | – | –
CNC(=O)N1N=C(c2ccc(-c3c(C)noc3C)cc2)c2cc(OCCCN3CCOCC3)ccc2CC1C (racemic) [Example 169, (±)-1-[4-(3,5-Dimethylisoxazol-4-yl)phenyl]-N,4-dimethyl-8-[3-(morpholin-4-yl)propoxy]-4,5-dihydro-3H-2,3-benzodiazepine-3-carboxamide] | 7.52 | 6.62 | – | 6.39 | 6.92 | 6.92 | 6.43
CNC(=O)N1N=C(c2ccc(Cl)cc2)c2cc(-n3nc(C)cc3C)ccc2CC1C (racemic) [Example 174, (±)-1-(4-Chlorophenyl)-8-(3,5-dimethyl-1H-pyrazol-1-yl)-N,4-dimethyl-4,5-dihydro-3H-2,3-benzodiazepine-3-carboxamide] | 6.60 | 5.63 | – | – | 5.69 | – | –
CNC(=O)N1N=C(c2ccc(-c3sc(C)nc3C)cc2)c2cc(OC)c(OC)cc2C[C@H]1C (single isomer, unassigned) [Example 46.2] | 5.94 | < 5.00 | – | – | 5.02 | – | –
CNC(=O)N1N=C(c2ccc(N3CC(F)C3)cc2)c2cc(OC)c(OC)cc2C[C@@H]1C [Example 129.2, (4S)-1-[4-(3-fluoroazetidin-1-yl)phenyl]-7,8-dimethoxy-N,4-dimethyl-4,5-dihydro-3H-2,3-benzodiazepine-3-carboxamide] | 7.70 | 6.82 | – | – | 7.10 | – | –
CNC(=O)N1N=C(c2ccc(-c3c(C)nn(C)c3C)cc2)c2cc(OC(F)(F)F)ccc2C[C@@H]1C [Example 249.1, (4S)-N,4-dimethyl-8-(trifluoromethoxy)-1-[4-(1,3,5-trimethyl-1H-pyrazol-4-yl)phenyl]-4,5-dihydro-3H-2,3-benzodiazepine-3-carboxamide] | 7.70 | 7.22 | – | – | – | – | –
CNC(=O)N1N=C(c2ccc(N3CCN(C)CC3)c(Br)c2)c2cc(OC)c(OC)cc2C[C@@H]1C [Example 253, (4S)-1-[3-Bromo-4-(4-methylpiperazin-1-yl)phenyl]-7,8-dimethoxy-N,4-dimethyl-4,5-dihydro-3H-2,3-benzodiazepine-3-carboxamide] | 7.40 | 7.22 | – | – | – | – | –
CNC(=O)N1N=C(c2ccc(N3CCN(C)CC3)c(C#N)c2)c2cc(OC)c(OC)cc2C[C@@H]1C [Example 254, (4S)-1-[3-Cyano-4-(4-methylpiperazin-1-yl)phenyl]-7,8-dimethoxy-N,4-dimethyl-4,5-dihydro-3H-2,3-benzodiazepine-3-carboxamide] | 6.96 | 6.77 | – | – | – | – | –
